In patent US10662159B2, “ABHD6 and dual ABHD6/MGL inhibitors and their uses” (MAKScientific, LLC, priority 2017, dated 2020):
pIC50: −log10 of the molar value.

Tests used:
Type in all cases: biochemical
hMGL = hMGL (Homo sapiens (Human), UniProt Q99685); test: Fluorescent assay for hMGL (AHMMCE substrate hydrolysis); settings: E. coli lysate containing hMGL, read-out: hMGL Inhibition IC50
Protocol: (§1) Certain compounds were tested for their ABHD6 and dual ABHD6/MGL inhibitory activity, which is expressed as % of inhibition or IC50 values in Table 1. The percentage of inhibition describes the percentage by which the inhibitor reduces the velocity/rate of 2-AG hydrolysis by ABHD6, and MGL or AEA hydrolysis by FAAH. […] The lower the IC50 values, the higher its inhibitory activity. A detailed description of the methods used to test inhibitory activity of compounds is given below.
Preparation of Human MAGL (hMAGL)
Fluorescent Assay Protocol for hMGL
This medium throughput assay involved a 96-well plate format in which hMGL activity was monitored by the hydrolysis of the substrate […] (AHMMCE) to form the fluorescent product, coumarin. […] Upon the addition of AHMMCE, the reaction was incubated at 25° C. for 120 min; fluorescence readings were taken every 15 min at 360 nm/460 nm (λexcitation/λemission) using a Synergy HT Plate Reader (Bio-Tek, Winooski, Vt.). […] External standards were used to convert relative fluorescence units to the amount of 4-methylcoumarin formed. All MGL assays were performed in triplicate for each inhibitor concentration, and IC50 values were calculated using Prizm software (GraphPad Software, Inc., San Diego, Calif.).

hFAAH = hFAAH (Homo sapiens (Human), UniProt O00519); test: Fluorescent assay for hFAAH; settings: MBP ΔTM hFAAH, procedure as for rFAAH; read-out: hFAAH Inhibition IC50
Sequence of hFAAH (O00519 30-579): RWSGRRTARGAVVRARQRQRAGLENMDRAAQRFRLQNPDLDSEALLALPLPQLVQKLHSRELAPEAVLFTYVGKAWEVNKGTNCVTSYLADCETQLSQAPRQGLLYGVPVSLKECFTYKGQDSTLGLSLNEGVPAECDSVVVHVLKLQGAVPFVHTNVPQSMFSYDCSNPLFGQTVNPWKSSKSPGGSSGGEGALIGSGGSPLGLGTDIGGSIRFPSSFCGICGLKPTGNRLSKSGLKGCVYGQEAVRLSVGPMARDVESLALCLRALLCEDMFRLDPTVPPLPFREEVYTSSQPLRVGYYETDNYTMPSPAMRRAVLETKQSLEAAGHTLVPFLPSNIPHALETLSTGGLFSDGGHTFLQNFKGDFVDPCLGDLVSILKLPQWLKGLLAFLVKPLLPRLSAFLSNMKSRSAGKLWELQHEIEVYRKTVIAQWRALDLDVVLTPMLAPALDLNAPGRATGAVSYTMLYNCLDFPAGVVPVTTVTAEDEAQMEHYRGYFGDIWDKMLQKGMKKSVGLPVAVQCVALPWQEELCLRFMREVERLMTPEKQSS
Protocol: (§2) Certain compounds were tested for their ABHD6 and dual ABHD6/MGL inhibitory activity, which is expressed as % of inhibition or IC50 values in Table 1. The percentage of inhibition describes the percentage by which the inhibitor reduces the velocity/rate of 2-AG hydrolysis by ABHD6, and MGL or AEA hydrolysis by FAAH. The IC50 is the concentration of the inhibitor, which results in 50% inhibition of the velocity/rate of 2-AG hydrolysis by ABHD6 or MGL. The IC50 is the concentration of the inhibitor, which results in 50% inhibition of the velocity/rate of AEA hydrolysis by FAAH. The lower the IC50 values, the higher its inhibitory activity. A detailed description of the methods used to test inhibitory activity of compounds is given below.
Example 80. Preparation of Human FAAH in Fusion with N-Terminal Maltose Binding Tag (MBP ΔTM hFAAH)
Human FAAH without putative transmembrane domain following maltose binding protein was expressed in E. coli cells using pMALcE4 vector Alapafuja et al J. Med. Chem. (2012) 55: 10074-89.
(§3) The fluorescence reading at the 3 hour time point (linear enzyme kinetics) was used to calculate percent inhibition based on control assays without inhibitor present. All FAAH assays were performed in triplicate for each inhibitor concentration, and IC50 values determined using Prizm software (GraphPad Software, Inc.).
Example 82. Fluorescent Assay Protocol for hFAAH
Procedure was followed as described for rFAAH.

Rat ΔTM FAAH = Rat ΔTM FAAH (Rattus norvegicus (Rat), UniProt P97612); test: Fluorescent assay for rat ΔTM FAAH (AAMCA substrate); settings: ΔTM rFAAH, AAMCA 20 μM; read-out: rFAAH Inhibition IC50
Sequence of Rat ΔTM FAAH (P97612 30-579): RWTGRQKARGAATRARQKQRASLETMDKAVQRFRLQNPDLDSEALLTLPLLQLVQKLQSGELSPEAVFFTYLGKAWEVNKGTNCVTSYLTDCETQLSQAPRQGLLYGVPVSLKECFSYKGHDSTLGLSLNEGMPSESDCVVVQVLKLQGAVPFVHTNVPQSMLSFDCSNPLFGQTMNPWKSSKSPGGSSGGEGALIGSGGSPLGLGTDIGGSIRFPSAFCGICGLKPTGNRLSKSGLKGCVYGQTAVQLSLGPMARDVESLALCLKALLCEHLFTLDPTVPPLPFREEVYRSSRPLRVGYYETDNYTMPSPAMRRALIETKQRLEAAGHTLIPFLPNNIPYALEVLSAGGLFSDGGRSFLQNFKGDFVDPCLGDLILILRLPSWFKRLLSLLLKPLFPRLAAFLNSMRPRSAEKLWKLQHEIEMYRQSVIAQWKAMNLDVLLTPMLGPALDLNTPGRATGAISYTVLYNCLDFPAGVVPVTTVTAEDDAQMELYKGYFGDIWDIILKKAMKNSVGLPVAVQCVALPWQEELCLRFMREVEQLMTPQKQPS
Protocol: as §2
Example 79. Preparation of Transmembrane Domain-Deleted Rat FAAH (ΔTM rFAAH)
Rat ΔTM FAAH was expressed in E. coli cells and purified using the procedure disclosed by Patricelli et al. Biochemistry (1998) 37: 15177-15187.
Example 81. Fluorescent Assay Protocol for Rat ΔTM FAAH
as §3

hABHD6 = hABHD6 (Homo sapiens (Human), UniProt Q9BV23); test: Fluorescent assay for hABHD6 (AHMMCE substrate hydrolysis); settings: membrane fraction containing full-length hABHD6, 20 μM AHMMCE; read-out: ABHD6 Inhibition IC50
Sequence of hABHD6 (Q9BV23 whole entry): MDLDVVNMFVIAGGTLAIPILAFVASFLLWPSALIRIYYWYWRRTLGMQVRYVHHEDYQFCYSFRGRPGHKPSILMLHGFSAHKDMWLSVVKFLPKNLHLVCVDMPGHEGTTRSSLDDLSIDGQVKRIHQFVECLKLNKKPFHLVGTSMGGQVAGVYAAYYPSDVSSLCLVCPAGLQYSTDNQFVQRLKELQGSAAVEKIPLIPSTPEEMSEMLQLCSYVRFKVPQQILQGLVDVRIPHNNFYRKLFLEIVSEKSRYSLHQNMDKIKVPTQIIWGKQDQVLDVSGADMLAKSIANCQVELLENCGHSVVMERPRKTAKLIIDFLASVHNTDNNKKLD
Protocol: as §1
Fluorescent Assays Protocol for hABHD6
Initial Fluorescent Inhibition Assay (3-Point)—
In each well of a 96-well plate 8 μL of membrane fraction containing full-length hABHD6 (1 μg total protein) was mixed with 168 μL of assay buffer (50 mM Tris-HCl, pH 7.6), and 20 μL of diluted compound (diluted in a dilution buffer consisting of 50% DMSO/50% assay buffer v/v). Each plate was incubated at RT for 15 minutes before adding 4 μL of 1 mM AHMMCE substrate (final concentration of 20 μM AHMMCE and final volume of 200 μL). The reaction was allowed to proceed for 1 hr at RT before the fluorescence was read at λex 360 nm and λem 460 nm and the inhibition calculated. Each experiment can test 8 compounds at three concentrations (usually 10 μM, 1 μM, and 100 nM).
IC50 Determination Assay (8-Point)—
A more detailed assay with an extended range tests compounds over 8 concentrations depending on the pre-determined approximate IC50 value from the initial screen. […] The assay was conducted in 96 well plate with each well containing the same reaction mixture detailed above in the 3-point screen. The relative fluorescence is quantified into coumarin produced by using a standard curve of HMMC in triplicate on each plate. Results are normalized to the negative control wells and the IC50 is determined using a non-linear regression curve fit in Prism, version 5 (GraphPad, San Diego, Calif.).

Sequence of hMGL (Q99685 whole entry): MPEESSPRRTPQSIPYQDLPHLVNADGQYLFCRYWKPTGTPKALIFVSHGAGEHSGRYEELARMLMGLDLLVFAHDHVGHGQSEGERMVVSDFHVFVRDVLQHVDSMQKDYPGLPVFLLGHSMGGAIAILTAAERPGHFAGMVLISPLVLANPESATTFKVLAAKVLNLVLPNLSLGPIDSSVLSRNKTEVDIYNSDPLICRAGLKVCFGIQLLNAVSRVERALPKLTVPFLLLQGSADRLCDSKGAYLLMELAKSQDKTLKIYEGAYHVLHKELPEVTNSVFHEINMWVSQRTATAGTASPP

SMILES | pIC50 (hMGL) | pIC50 (hFAAH) | pIC50 (Rat ΔTM FAAH) | pIC50 (hABHD6)
CC1Cc2ccccc2CN1C(=O)OC(C(F)(F)F)C(F)(F)F (centres unmarked) [Example 13, 1,1,1,3,3,3-Hexafluoropropan-2-yl 3-methyl-3,4-dihydroisoquinoline-2(1H)-carboxylate] | < 6.00 | < 6.00 | < 6.00 | < 6.00
O=C(OC(C(F)(F)F)C(F)(F)F)N1Cc2ccc(Cl)nc2C1 [Example 14, 1,1,1,3,3,3-Hexafluoropropan-2-yl-2-chloro-5,7-dihydro-6H-pyrrolo[3,4-b]pyridine-6-carboxylate] | < 6.00 | < 6.00 | < 6.00 | 6.00 to 7.00
CC1c2ccc(Br)cc2CN1C(=O)OC(C(F)(F)F)C(F)(F)F (centres unmarked) [Example 15, 1,1,1,3,3,3-Hexafluoropropan-2-yl 5-bromo-1-methylisoindoline-2-carboxylate] | < 6.00 | < 6.00 | < 6.00 | < 6.00
O=C(OC(C(F)(F)F)C(F)(F)F)N1CCc2c(Br)cccc2C1 [Example 16, 1,1,1,3,3,3-Hexafluoropropan-2-yl 5-bromo-3,4-dihydroisoquinoline-2(1H)-carboxylate] | < 6.00 | < 6.00 | < 6.00 | 7.00 to 8.00
O=C(OC(C(F)(F)F)C(F)(F)F)N1CCc2cc(Br)ccc2C1 [Example 17, 1,1,1,3,3,3-Hexafluoropropan-2-yl 6-bromo-3,4-dihydroisoquinoline-2(1H)-carboxylate] | < 6.00 | < 6.00 | < 6.00 | 7.00 to 8.00
O=C(OC(C(F)(F)F)C(F)(F)F)N1CCc2ccc(Br)cc2C1 [Example 18, 1,1,1,3,3,3-Hexafluoropropan-2-yl 7-bromo-3,4-dihydroisoquinoline-2(1H)-carboxylate] | < 6.00 | < 6.00 | < 6.00 | 6.00 to 7.00

Continued, values first:

pIC50 (hMGL) | pIC50 (hFAAH) | pIC50 (Rat ΔTM FAAH) | pIC50 (hABHD6) | SMILES
< 6.00 | < 6.00 | < 6.00 | 7.00 to 8.00 | COc1cccc2c1CN(C(=O)OC(C(F)(F)F)C(F)(F)F)C2 [Example 19, 1,1,1,3,3,3-Hexafluoropropan-2-yl 4-methoxyisoindoline-2-carboxylate]
< 6.00 | < 6.00 | < 6.00 | 6.00 to 7.00 | CC1CN(C(=O)OC(C(F)(F)F)C(F)(F)F)Cc2ccccc21 (centres unmarked) [Example 20, 1,1,1,3,3,3-Hexafluoropropan-2-yl 4-methyl-3,4-dihydroisoquinoline-2(1H)-carboxylate]
< 6.00 | < 6.00 | < 6.00 | 7.00 to 8.00 | COc1cc2c(cc1OC)CN(C(=O)OC(C(F)(F)F)C(F)(F)F)C2 [Example 21, 1,1,1,3,3,3-Hexafluoropropan-2-yl 5,6-dimethoxyisoindoline-2-carboxylate]
< 6.00 | < 6.00 | < 6.00 | < 6.00 | O=C(OC(C(F)(F)F)C(F)(F)F)N1CCCc2ccccc2C1 [Example 24, 1,1,1,3,3,3-Hexafluoropropan-2-yl 1,3,4,5-tetrahydro-2H-benzo[c]azepine-2-carboxylate]
< 6.00 | < 6.00 | < 6.00 | 7.00 to 8.00 | COc1ccc(-c2ccc3c(c2)CN(C(=O)OC(C(F)(F)F)C(F)(F)F)C3)cc1F [Example 26, 1,1,1,3,3,3-Hexafluoropropan-2-yl 5-(3-fluoro-4-methoxyphenyl)isoindoline-2-carboxylate]
